Measurements published in PubChem BioAssay (NCI).
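Interpolation was linear, between the two tested concentrations surrounding the appropriate level; five concentrations were tested over 48 hours in 96-well plates. The concentration for 50% growth inhibition is given as GI50. TGI: total growth inhibition.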

Columns and labels:
Assay in all cases: NCI-60 cell line screen, 48 h
UACC-257 melanoma = tested on: UACC-257 melanoma
OVCAR-5 ovarian = tested on: OVCAR-5 ovarian
EKVX NSCLC = tested on: EKVX NSCLC
COLO 205 colon = tested on: COLO 205 colon
NCI-H23 lung = tested on: NCI-H23 lung
OVCAR-8 ovarian = tested on: OVCAR-8 ovarian
HL-60(TB) leukemia = tested on: HL-60(TB) leukemia
NCI/ADR-RES ovarian = tested on: NCI/ADR-RES ovarian
SK-MEL-28 melanoma = tested on: SK-MEL-28 melanoma
HOP-92 NSCLC = tested on: HOP-92 NSCLC
ACHN renal = tested on: ACHN renal
SN12C renal = tested on: SN12C renal
IGROV1 ovarian = tested on: IGROV1 ovarian
MALME-3M melanoma = tested on: MALME-3M melanoma
TK-10 renal = tested on: TK-10 renal
MDA-MB-468 breast = tested on: MDA-MB-468 breast
OVCAR-4 ovarian = tested on: OVCAR-4 ovarian
A549 NSCLC = tested on: A549 NSCLC
OVCAR-3 ovarian = tested on: OVCAR-3 ovarian
A498 renal = tested on: A498 renal
786-0 renal = tested on: 786-0 renal
PC-3 prostate = tested on: PC-3 prostate
SK-MEL-5 melanoma = tested on: SK-MEL-5 melanoma
UACC-62 melanoma = tested on: UACC-62 melanoma
CAKI-1 renal = tested on: CAKI-1 renal
MCF7 breast = tested on: MCF7 breast
HCC-2998 colon = tested on: HCC-2998 colon
KM12 colon = tested on: KM12 colon
SK-MEL-2 melanoma = tested on: SK-MEL-2 melanoma
MDA-MB-231 breast = tested on: MDA-MB-231 breast
HOP-62 NSCLC = tested on: HOP-62 NSCLC
UO-31 renal = tested on: UO-31 renal
SF-295 CNS = tested on: SF-295 CNS
RXF 393 renal = tested on: RXF 393 renal
SNB-19 CNS = tested on: SNB-19 CNS
SF-539 CNS = tested on: SF-539 CNS
LOX IMVI melanoma = tested on: LOX IMVI melanoma
SF-268 CNS = tested on: SF-268 CNS
DU-145 prostate = tested on: DU-145 prostate
MDA-MB-435 = tested on: MDA-MB-435
HCT-15 colon = tested on: HCT-15 colon
NCI-H522 lung = tested on: NCI-H522 lung
SK-OV-3 ovarian = tested on: SK-OV-3 ovarian
BT-549 breast = tested on: BT-549 breast

With `Clc1ccc2c(N/N=C/c3c[nH]c4ccc(Br)cc34)ccnc2c1` the GI50 (UACC-257 melanoma) was 1.58 µM, the TGI (UACC-257 melanoma) was 2.97 µM and the GI50 (OVCAR-5 ovarian) was 1.53 µM. For the same compound, the TGI (OVCAR-5 ovarian) was 2.88 µM, the GI50 (EKVX NSCLC) was 1.16 µM and the TGI (EKVX NSCLC) was 2.4 µM. It also gave a GI50 (COLO 205 colon) of 0.358 µM, a TGI (COLO 205 colon) of 1.29 µM and a GI50 (NCI-H23 lung) of 1.11 µM. For the same compound, the TGI (NCI-H23 lung) was 2.37 µM, the GI50 (OVCAR-8 ovarian) was 1.8 µM and the TGI (OVCAR-8 ovarian) was 3.35 µM. It also gave a GI50 (HL-60(TB) leukemia) of 0.469 µM, a TGI (HL-60(TB) leukemia) of 1.92 µM and a GI50 (NCI/ADR-RES ovarian) of 1.41 µM. It also gave a TGI (NCI/ADR-RES ovarian) of 2.84 µM, a GI50 (SK-MEL-28 melanoma) of 1.59 µM and a TGI (SK-MEL-28 melanoma) of 2.95 µM. The GI50 (HOP-92 NSCLC) was 1.33 µM, the TGI (HOP-92 NSCLC) was 2.74 µM and the GI50 (ACHN renal) was 1.66 µM. It also gave a TGI (ACHN renal) of 3.04 µM, a GI50 (SN12C renal) of 1.75 µM and a TGI (SN12C renal) of 3.17 µM. It also gave a GI50 (IGROV1 ovarian) of 1.65 µM, a TGI (IGROV1 ovarian) of 3.08 µM and a GI50 (MALME-3M melanoma) of 1.6 µM. The TGI (MALME-3M melanoma) was 3.01 µM, the GI50 (TK-10 renal) was 2.27 µM and the TGI (TK-10 renal) was 3.78 µM. For the same compound, the GI50 (MDA-MB-468 breast) was 1.24 µM, the TGI (MDA-MB-468 breast) was 2.57 µM and the GI50 (OVCAR-4 ovarian) was 1.77 µM. For the same compound, the TGI (OVCAR-4 ovarian) was 3.38 µM, the GI50 (A549 NSCLC) was 1.58 µM and the TGI (A549 NSCLC) was 3.06 µM. For the same compound, the GI50 (OVCAR-3 ovarian) was 1.66 µM, the TGI (OVCAR-3 ovarian) was 3.06 µM and the GI50 (A498 renal) was 1.87 µM. It also gave a TGI (A498 renal) of 3.38 µM, a GI50 (786-0 renal) of 1.44 µM and a TGI (786-0 renal) of 2.88 µM. The GI50 (PC-3 prostate) was 1.31 µM, the TGI (PC-3 prostate) was 2.76 µM and the GI50 (SK-MEL-5 melanoma) was 1.5 µM. For the same compound, the TGI (SK-MEL-5 melanoma) was 2.83 µM, the GI50 (UACC-62 melanoma) was 1.66 µM and the TGI (UACC-62 melanoma) was 3.05 µM. It also gave a GI50 (CAKI-1 renal) of 1.46 µM, a TGI (CAKI-1 renal) of 2.8 µM and a GI50 (MCF7 breast) of 0.952 µM. For the same compound, the TGI (MCF7 breast) was 2.35 µM, the GI50 (HCC-2998 colon) was 0.762 µM and the TGI (HCC-2998 colon) was 2.06 µM. It also gave a GI50 (KM12 colon) of 1.8 µM, a TGI (KM12 colon) of 3.34 µM and a GI50 (SK-MEL-2 melanoma) of 1.79 µM. For the same compound, the TGI (SK-MEL-2 melanoma) was 3.25 µM, the GI50 (MDA-MB-231 breast) was 1.24 µM and the TGI (MDA-MB-231 breast) was 2.56 µM. It also gave a GI50 (HOP-62 NSCLC) of 1.58 µM, a TGI (HOP-62 NSCLC) of 3.1 µM and a GI50 (UO-31 renal) of 1.44 µM. For the same compound, the TGI (UO-31 renal) was 2.77 µM, the GI50 (SF-295 CNS) was 1.61 µM and the TGI (SF-295 CNS) was 2.99 µM. The GI50 (RXF 393 renal) was 1.42 µM, the TGI (RXF 393 renal) was 2.79 µM and the GI50 (SNB-19 CNS) was 1.54 µM. For the same compound, the TGI (SNB-19 CNS) was 2.89 µM, the GI50 (SF-539 CNS) was 1.66 µM and the TGI (SF-539 CNS) was 3.05 µM. For the same compound, the GI50 (LOX IMVI melanoma) was 0.173 µM, the TGI (LOX IMVI melanoma) was 0.33 µM and the GI50 (SF-268 CNS) was 1.7 µM. It also gave a TGI (SF-268 CNS) of 3.53 µM, a GI50 (DU-145 prostate) of 0.924 µM and a TGI (DU-145 prostate) of 2.14 µM. It also gave a GI50 (MDA-MB-435) of 1.69 µM, a TGI (MDA-MB-435) of 3.1 µM and a GI50 (HCT-15 colon) of 0.182 µM. For the same compound, the TGI (HCT-15 colon) was 0.343 µM, the GI50 (NCI-H522 lung) was 1.79 µM and the TGI (NCI-H522 lung) was 3.37 µM. It also gave a GI50 (SK-OV-3 ovarian) of 1.57 µM, a TGI (SK-OV-3 ovarian) of 3.03 µM and a GI50 (BT-549 breast) of 1.48 µM. It also gave a TGI (BT-549 breast) of 2.84 µM.
